Here are results for 29 compounds from patent US20090221603A1, “HETEROCYCLIC AMIDE DERIVATIVES AS CALCIUM CHANNEL BLOCKERS” (priority 2005, published 2009).

Read-outs that look alike come from different tables or passages of the source.

In the assay the target is T1, rat brain N-type calcium channel subunits (α1B+α2δ+β1b cDNA subunits) (Rattus norvegicus, UniProt Q02294).
T1 construct: expressed in transfected cells; host or cells: HEK 293 (stably, alternatively transiently, transfected)
Kind of assay: N-type calcium channel block, whole cell patch clamp in HEK 293 cells. In kind it is cell-based. As to conditions: holding potential −80 mV to +10 mV. The procedure:
A. Transformation of HEK Cells: • N-type calcium channel blocking activity was assayed in human embryonic kidney cells, HEK 293, stably transfected with the rat brain N-type calcium channel subunits (α1B+α2δ+β1b cDNA subunits). Alternatively, N-type calcium channels (α1B+α2δ+β1b cDNA subunits), L-type channels (α1C+α2δ+β1b cDNA subunits) and P/Q-type channels (α1A+α2δ+β1b cDNA subunits) were transiently expressed in HEK 293 cells. Briefly, cells were cultured in Dulbecco's modified eagle medium (DMEM) supplemented with 10% fetal bovine serum, 200 U/ml penicillin and 0.2 mg/ml streptomycin at 37° C. with 5% CO2. At 85% confluency cells were split with 0.25% trypsin/1 mM EDTA and plated at 10% confluency on glass coverslips. At 12 hours the medium was replaced and the cells transiently transfected using a standard calcium phosphate protocol and the appropriate calcium channel cDNA's. Fresh DMEM was supplied and the cells transferred to 28° C./5% CO2. Cells were incubated for 1 to 2 days prior to whole cell recording.
B. Measurement of Inhibition
Whole cell patch clamp experiments were performed using an Axopatch 200B amplifier (Axon Instruments, Burlingame, Calif.) linked to a personal computer equipped with pCLAMP software. The external and internal recording solutions contained, respectively, 5 mM BaCl2, 10 mM MgCl2, 10 mM HEPES, 40 mM TEACl, 10 mM glucose, 87.5 mM CsCl (pH 7.2) and 108 mM CsMS, 4 mM MgCl2, 9 mM EGTA, 9 mM HEPES (pH 7.2). Currents were typically elicited from a holding potential of −80 mV to +10 mV using Clampex software (Axon Instruments). Typically, currents were first elicited with low frequency stimulation (0.067 Hz) and allowed to stabilize prior to application of the compounds. The compounds were then applied during the low frequency pulse trains for two to three minutes to assess tonic block, and subsequently the pulse frequency was increased to 0.2 Hz to assess frequency dependent block. Data were analyzed using Clampfit (Axon Instruments) and SigmaPlot 4.0 (Jandel Scientific).
(In general: In patch-clamp work, channel activity is measured electrically.)

The mark [1] stands for this setting: low frequency stimulation 0.067 Hz (tonic block), read-out: IC50 @ 0.067 Hz.
Setting [2] is: pulse frequency 0.2 Hz (frequency dependent block), read-out: IC50 @ 0.2 Hz.

T1 sequence (Q02294 whole entry): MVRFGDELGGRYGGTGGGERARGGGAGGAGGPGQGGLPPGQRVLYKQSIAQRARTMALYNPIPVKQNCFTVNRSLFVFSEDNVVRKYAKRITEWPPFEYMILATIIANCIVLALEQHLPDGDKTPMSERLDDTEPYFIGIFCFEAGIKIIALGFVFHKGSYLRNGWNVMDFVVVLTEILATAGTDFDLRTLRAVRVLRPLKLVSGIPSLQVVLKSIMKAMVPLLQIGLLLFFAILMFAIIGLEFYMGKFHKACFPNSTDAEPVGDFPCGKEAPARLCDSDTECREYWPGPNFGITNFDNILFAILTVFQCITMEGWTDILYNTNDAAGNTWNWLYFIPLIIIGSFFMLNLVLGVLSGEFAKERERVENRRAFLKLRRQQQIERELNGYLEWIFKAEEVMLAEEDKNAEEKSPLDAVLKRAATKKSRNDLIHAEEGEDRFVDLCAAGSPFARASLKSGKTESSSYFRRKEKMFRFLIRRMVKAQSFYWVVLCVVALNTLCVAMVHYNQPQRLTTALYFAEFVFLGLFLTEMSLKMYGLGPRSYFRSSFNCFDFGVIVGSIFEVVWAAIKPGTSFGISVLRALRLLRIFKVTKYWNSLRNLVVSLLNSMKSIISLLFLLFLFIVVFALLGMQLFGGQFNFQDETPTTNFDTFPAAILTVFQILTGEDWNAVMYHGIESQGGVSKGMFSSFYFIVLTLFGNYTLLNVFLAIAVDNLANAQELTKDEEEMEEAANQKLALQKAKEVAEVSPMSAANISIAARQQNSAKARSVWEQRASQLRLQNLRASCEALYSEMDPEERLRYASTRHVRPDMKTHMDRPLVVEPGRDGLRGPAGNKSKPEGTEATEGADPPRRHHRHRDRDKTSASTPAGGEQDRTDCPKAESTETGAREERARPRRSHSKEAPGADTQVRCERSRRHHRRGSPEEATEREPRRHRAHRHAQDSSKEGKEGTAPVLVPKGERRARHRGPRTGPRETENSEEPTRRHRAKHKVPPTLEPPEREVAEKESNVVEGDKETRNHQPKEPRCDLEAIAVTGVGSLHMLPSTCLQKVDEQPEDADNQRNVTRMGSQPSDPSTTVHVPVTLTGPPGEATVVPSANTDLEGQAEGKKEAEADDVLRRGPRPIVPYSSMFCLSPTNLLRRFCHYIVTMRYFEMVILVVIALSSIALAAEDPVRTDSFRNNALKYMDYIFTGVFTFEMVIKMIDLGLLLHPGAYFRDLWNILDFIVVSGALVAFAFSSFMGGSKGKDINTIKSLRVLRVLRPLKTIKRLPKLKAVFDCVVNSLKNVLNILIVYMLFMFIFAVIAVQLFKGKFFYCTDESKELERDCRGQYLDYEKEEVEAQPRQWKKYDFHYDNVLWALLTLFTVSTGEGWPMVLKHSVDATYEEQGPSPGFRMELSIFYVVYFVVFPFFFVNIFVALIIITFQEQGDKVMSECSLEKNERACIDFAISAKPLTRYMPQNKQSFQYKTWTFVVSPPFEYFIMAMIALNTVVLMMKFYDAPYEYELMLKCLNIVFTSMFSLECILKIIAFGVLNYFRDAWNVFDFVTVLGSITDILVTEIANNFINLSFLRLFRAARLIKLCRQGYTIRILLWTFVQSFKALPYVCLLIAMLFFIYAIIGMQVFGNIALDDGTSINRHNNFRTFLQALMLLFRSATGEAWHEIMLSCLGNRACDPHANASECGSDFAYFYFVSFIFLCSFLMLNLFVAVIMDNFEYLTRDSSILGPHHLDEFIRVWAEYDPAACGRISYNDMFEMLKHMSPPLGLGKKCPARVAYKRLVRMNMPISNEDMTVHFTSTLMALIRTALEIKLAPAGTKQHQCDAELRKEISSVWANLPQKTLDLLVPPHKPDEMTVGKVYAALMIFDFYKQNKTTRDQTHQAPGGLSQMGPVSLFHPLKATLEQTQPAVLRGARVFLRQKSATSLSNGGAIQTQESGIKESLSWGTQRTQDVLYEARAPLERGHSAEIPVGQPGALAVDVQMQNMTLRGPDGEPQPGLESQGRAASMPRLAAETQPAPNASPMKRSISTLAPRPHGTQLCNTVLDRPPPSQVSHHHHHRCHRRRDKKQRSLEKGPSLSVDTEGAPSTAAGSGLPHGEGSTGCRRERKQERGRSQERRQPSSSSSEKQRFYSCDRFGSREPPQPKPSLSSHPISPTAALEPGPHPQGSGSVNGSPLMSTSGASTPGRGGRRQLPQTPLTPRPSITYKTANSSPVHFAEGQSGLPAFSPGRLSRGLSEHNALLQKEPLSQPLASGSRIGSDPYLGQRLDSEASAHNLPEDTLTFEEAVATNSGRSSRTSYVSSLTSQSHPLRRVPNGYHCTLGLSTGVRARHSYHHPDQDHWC
T1 sequence (P54290 25-944 partner limits assumed): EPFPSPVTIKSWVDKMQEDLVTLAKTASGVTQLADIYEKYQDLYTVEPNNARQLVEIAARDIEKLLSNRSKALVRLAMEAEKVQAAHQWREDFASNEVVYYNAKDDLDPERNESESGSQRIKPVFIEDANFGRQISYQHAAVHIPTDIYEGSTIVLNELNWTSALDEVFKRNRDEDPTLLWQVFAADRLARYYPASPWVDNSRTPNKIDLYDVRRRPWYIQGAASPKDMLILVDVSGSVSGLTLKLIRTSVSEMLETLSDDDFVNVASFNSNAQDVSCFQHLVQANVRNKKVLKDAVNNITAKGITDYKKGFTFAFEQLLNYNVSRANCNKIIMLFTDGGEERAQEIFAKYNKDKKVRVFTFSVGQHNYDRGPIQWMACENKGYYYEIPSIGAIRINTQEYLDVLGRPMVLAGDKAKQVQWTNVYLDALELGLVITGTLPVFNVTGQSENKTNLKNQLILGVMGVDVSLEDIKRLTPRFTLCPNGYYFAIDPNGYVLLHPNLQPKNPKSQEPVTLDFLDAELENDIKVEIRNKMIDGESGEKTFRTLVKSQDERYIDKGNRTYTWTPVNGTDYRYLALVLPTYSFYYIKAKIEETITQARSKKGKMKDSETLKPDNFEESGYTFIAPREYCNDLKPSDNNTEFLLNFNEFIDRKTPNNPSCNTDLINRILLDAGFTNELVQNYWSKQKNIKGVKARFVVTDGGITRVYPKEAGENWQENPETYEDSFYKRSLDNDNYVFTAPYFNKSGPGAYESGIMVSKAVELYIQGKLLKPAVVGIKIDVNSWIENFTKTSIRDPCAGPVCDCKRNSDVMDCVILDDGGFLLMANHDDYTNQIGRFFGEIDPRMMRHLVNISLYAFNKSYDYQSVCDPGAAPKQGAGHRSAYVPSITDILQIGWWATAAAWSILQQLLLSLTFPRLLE
T1 sequence (P54290 945-1091 partner limits assumed): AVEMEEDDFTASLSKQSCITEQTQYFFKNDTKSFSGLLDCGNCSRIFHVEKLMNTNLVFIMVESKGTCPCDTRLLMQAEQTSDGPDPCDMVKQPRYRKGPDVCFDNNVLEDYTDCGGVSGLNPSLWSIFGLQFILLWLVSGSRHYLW
T1 sequence (P54283 whole entry partner): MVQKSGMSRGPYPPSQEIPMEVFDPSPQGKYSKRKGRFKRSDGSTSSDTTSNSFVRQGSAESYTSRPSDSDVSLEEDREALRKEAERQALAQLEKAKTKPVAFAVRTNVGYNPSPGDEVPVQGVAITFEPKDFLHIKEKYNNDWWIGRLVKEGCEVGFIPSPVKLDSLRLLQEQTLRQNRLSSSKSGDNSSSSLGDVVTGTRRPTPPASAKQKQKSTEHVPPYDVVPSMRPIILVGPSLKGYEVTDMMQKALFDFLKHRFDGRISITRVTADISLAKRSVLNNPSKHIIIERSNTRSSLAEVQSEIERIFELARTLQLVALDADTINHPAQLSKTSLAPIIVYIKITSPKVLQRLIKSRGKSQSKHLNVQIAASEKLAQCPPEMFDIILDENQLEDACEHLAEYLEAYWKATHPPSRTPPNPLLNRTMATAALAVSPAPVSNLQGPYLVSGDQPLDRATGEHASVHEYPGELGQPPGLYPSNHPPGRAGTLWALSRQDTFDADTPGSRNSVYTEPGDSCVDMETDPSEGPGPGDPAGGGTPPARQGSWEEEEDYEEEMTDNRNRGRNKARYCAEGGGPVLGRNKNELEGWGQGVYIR

As to `CN(CC(=O)N1CCN(C(c2ccccc2)c2ccc(Cl)cc2)CC1)C(c1ccccc1)c1ccccc1` (stereo not shown) [Compound 3, 2-benzhydryl(methyl)amino-1-(4-((4-chlorophenyl)(phenyl)methyl)piperazin-1-yl)ethanone], the IC50 (commonly the concentration that inhibits the measured activity by half) is 2.45 µM under setting [1] and 0.85 µM under setting [2].

Turning to `CN(CC(=O)N1CCN(C(c2ccccc2)c2cccc(Cl)c2)CC1)C(c1ccccc1)c1ccccc1` (stereo not shown) [Compound 4, 2-benzhydryl(methyl)amino-1-(4-((3-chlorophenyl)(phenyl)methyl)piperazin-1-yl)ethanone], the IC50 was determined as 1.24 µM under setting [1] and 0.84 µM under setting [2].

For `CN(CC(=O)N1CCN(C(c2ccccc2)c2ccccc2Cl)CC1)C(c1ccccc1)c1ccccc1` (stereo not shown) [Compound 5, 2-benzhydryl(methyl)amino-1-(4-((2-chlorophenyl)(phenyl)methyl)piperazin-1-yl)ethanone], the IC50 is greater than 4.67 µM under setting [1] and greater than 2.94 µM under setting [2].

For the compound `CN(CC(=O)N1CCN(C(c2ccccc2)c2cccc(C(F)(F)F)c2)CC1)C(c1ccccc1)c1ccccc1` (stereo not shown) [Compound 7], the IC50 by setting is: under setting [1], 1.46 µM; under setting [2], 0.67 µM.

Consider `CN1CCC(CN2CCN(C(=O)CNC(c3ccccc3)c3ccccc3)CC2)CC1` [Compound 9], for which the IC50 reads like this: under setting [1], 4 µM; under setting [2], 2.5 µM.

Take `CN1CCC(C(=O)N2CCN(C(=O)CNC(c3ccccc3)c3ccccc3)CC2)CC1` [Compound 10, 2-benzhydrylamino-1-(4-(1-methylpiperidine-4-carbonyl)piperazin-1-yl)ethanone]: the half-inhibitory concentration (IC50) is, setting by setting: under setting [1], greater than 4.97 µM; under setting [2], greater than 2.64 µM.

`CN1CCC(C(=O)N2CCN(C(=O)CN(C)C(c3ccccc3)c3ccccc3)CC2)CC1` [Compound 11, 2-benzhydryl(methyl)amino-1-(4-(1-methylpiperidine-4-carbonyl)piperazin-1-yl)ethanone]: the IC50 is greater than 11.8 µM under setting [1] and 7.92 µM under setting [2].

Take `CN1CCC(CN2CCN(C(=O)CN(C)C(c3ccccc3)c3ccccc3)CC2)CC1` [Compound 12]: the IC50 under setting [1] is 7.4 µM and the IC50 under setting [2] is 2.07 µM.

With `CN1CCC(C(c2ccccc2)N2CCN(C(=O)CN(C)C(c3ccccc3)c3ccccc3)CC2)CC1` (stereo not shown) [Compound 14, 2-benzhydryl(methyl)amino-1-(4-((1-methylpiperidin-4-yl)(phenyl)methyl)piperazin-1-yl)ethanone], the IC50 by setting is: under setting [1], 0.55 µM; under setting [2], 0.44 µM.

For `O=C(CNc1ccccc1)N1CCN(C(c2ccccc2)c2ccccc2)CC1` [Compound 16], the IC50 is 4.3 µM under setting [1] and 0.8 µM under setting [2].

For the compound `O=C(CNc1ccc(Cl)cc1)N1CCN(C(c2ccccc2)c2ccccc2)CC1` [Compound 17, 1-(4-benzhydrylpiperazin-1-yl)-2-(4-chlorophenylamino)ethanone], the IC50 is greater than 7.6 µM under setting [1] and greater than 4.6 µM under setting [2].

With `O=C(CNc1cccc(Cl)c1)N1CCN(C(c2ccccc2)c2ccccc2)CC1` [Compound 18, 1-(4-benzhydrylpiperazin-1-yl)-2-(3-chlorophenylamino)ethanone], the IC50 was determined as 1.29 µM under setting [1] and 1.03 µM under setting [2].

With `O=C(CNc1cc(F)cc(F)c1)N1CCN(C(c2ccccc2)c2ccccc2)CC1` [Compound 21, 1-(4-benzhydrylpiperazin-1-yl)-2-(3,5-difluorophenylamino)ethanone], the IC50 under setting [1] was found to be 1.4 µM and the IC50 under setting [2] was determined as 0.7 µM.

In the case of `O=C(CNc1cc(Cl)cc(Cl)c1)N1CCN(C(c2ccccc2)c2ccccc2)CC1` [Compound 22, 1-(4-benzhydrylpiperazin-1-yl)-2-(3,5-dichlorophenylamino)ethanone], the IC50 came to 2.4 µM under setting [1] and 0.98 µM under setting [2].

`COc1cc(NCC(=O)N2CCN(C(c3ccccc3)c3ccccc3)CC2)cc(OC)c1OC` [Compound 25, 1-(4-benzhydrylpiperazin-1-yl)-2-(3,4,5-trimethoxyphenylamino) ethanone]: the IC50 was 2.3 µM under setting [1] and 1.5 µM under setting [2].

Consider `CC1CN(CC2CCOCC2)CC(C)N1C(=O)COC(c1ccccc1)c1ccccc1` (stereo not shown) [Compound 32, 2-(benzhydryloxy)-1-(2,6-dimethyl-4-((tetrahydro-2H-pyran-4-yl)methyl)piperazin-1-yl)ethanone], for which the IC50 was 1 µM under setting [1] and 0.64 µM under setting [2].

Consider `CC1CN(CC2CCOCC2)CC(C)N1C(=O)C[S+]([O-])C(c1ccccc1)c1ccccc1` (stereo not shown) [Compound 34, 2-(benzhydrylsulfinyl)-1-(2,6-dimethyl-4-((tetrahydro-2H-pyran-4-yl)methyl)piperazin-1-yl)ethanone], for which the IC50 runs as follows: under setting [1], greater than 6.6 µM; under setting [2], greater than 4.7 µM.

On to `O=C(COC(c1ccccc1)c1ccccc1)N1CCN(CC2CCOCC2)CC1` [Compound 35, 2-(benzhydryloxy)-1-(4-((tetrahydro-2H-pyran-4-yl)methyl)piperazin-1-yl)ethanone], for which the IC50 reads like this: under setting [1], 8.3 µM; under setting [2], 1.3 µM.

For `O=C(CNC(c1ccccc1)c1ccccc1)N1CCN(CC2CCOCC2)CC1` [Compound 38, 2-(benzhydrylamino)-1-(4-((tetrahydro-2H-pyran-4-yl)methyl)piperazin-1-yl)ethanone], the IC50 reads like this: under setting [1], 9.53 µM; under setting [2], 4.91 µM.

For `Cc1cc(CN2CCN(C(=O)COC(c3ccccc3)c3ccccc3)CC2)cc(Cl)n1` [Compound 40, 2-(benzhydryloxy)-1-(4-((2-chloro-6-methylpyridin-4-yl)methyl)piperazin-1-yl)ethanone], the IC50 stood at 1.2 µM under setting [1] and 0.74 µM under setting [2].

Take `CN1CCC(CN2CCN(C(=O)COC(c3ccccc3)c3ccccc3)CC2)CC1` [Compound 41, 2-(benzhydryloxy)-1-(4-((1-methylpiperidin-4-yl)methyl)piperazin-1-yl)ethanone]: the IC50 is, setting by setting: under setting [1], greater than 4.8 µM; under setting [2], greater than 3.2 µM.

Take `CN1CCC(CN2CCN(C(=O)C[S+]([O-])C(c3ccccc3)c3ccccc3)CC2)CC1` (stereo not shown) [Compound 43, 2-(benzhydrylsulfinyl)-1-(4-((1-methylpiperidin-4-yl)methyl)piperazin-1-yl)ethanone]: the IC50 runs as follows: under setting [1], 4.26 µM; under setting [2], 1.34 µM.

For the compound `O=C(CSC(c1ccccc1)c1ccccc1)N1CCN(C(c2ccccc2)c2ccccc2)CC1` [Compound 44, 1-(4-benzhydrylpiperazin-1-yl)-2-(benzhydrylthio)ethanone], the concentration for half-maximal inhibition (IC50) is, setting by setting: under setting [1], 0.6 µM; under setting [2], 0.27 µM.

In the case of `O=C(C[S+]([O-])C(c1ccccc1)c1ccccc1)N1CCN(C(c2ccccc2)c2ccccc2)CC1` (stereo not shown) [Compound 45, 1-(4-benzhydrylpiperazin-1-yl)-2-(benzhydrylsulfinyl)ethanone], the IC50 runs as follows: under setting [1], 0.29 µM; under setting [2], 0.2 µM.

With `O=C(CSC(c1ccccc1)c1ccccc1)N1CCN(C(c2ccc(F)cc2)c2ccc(F)cc2)CC1` [Compound 47, 2-(benzhydrylthio)-1-(4-(bis(4-fluorophenyl)methyl)piperazin-1-yl)ethanone], the IC50 is, setting by setting: under setting [1], 4.92 µM; under setting [2], 3.23 µM.

Take `O=C(COC(c1ccccc1)c1ccccc1)N1CCN(C(c2ccccc2)c2ccccc2)C(CO)C1` (stereo not shown) [Compound 50, 2-(benzhydryloxy)-1-(4-benzhydryl-3-hydroxymethylpiperazin-1-yl)ethanone]: the IC50 is, setting by setting: under setting [1], 0.4 µM; under setting [2], 0.23 µM.

For `O=C(C[S+]([O-])C(c1ccccc1)c1ccccc1)N1CCN(C(c2ccccc2)c2ccccc2)C(CO)C1` (stereo not shown) [Compound 52, 1-(4-benzhydryl-3-hydroxymethylpiperazin-1-yl)-2-(benzhydrylsulfinyl)ethanone], the IC50 under setting [1] stood at 1.23 µM and the IC50 under setting [2] came to 0.97 µM.

As to `COCC1CN(C(=O)COC(c2ccccc2)c2ccccc2)CCN1C(c1ccccc1)c1ccccc1` (stereo not shown) [Compound 54, 2-(benzhydryloxy)-1-(4-benzhydryl-3-methoxymethylpiperazin-1-yl)ethanone], the IC50 is 0.33 µM under setting [1] and 0.21 µM under setting [2].

In the case of `COCC1CN(C(=O)C[S+]([O-])C(c2ccccc2)c2ccccc2)CCN1C(c1ccccc1)c1ccccc1` (stereo not shown) [Compound 56, 1-(4-benzhydryl-3-methoxymethylpiperazin-1-yl)-2-(benzhydrylsulfinyl)ethanone], the IC50 runs as follows: under setting [1], 0.18 µM; under setting [2], 0.13 µM.
